Results published in patent US11008313B2, “Substituted 1-methyl-1,2,3,4-tetrahydroisoquinoline molecules as PCSK9 allosteric binders” (Merck Sharp & Dohme Corp., priority 2016, dated 2021).
pIC50: −log10 of the molar value.

Assays:
PCSK9 [1] = target: T1, PCSK9 (Homo sapiens, UniProt Q8NBP7); experiment: Differential scanning calorimetry (DSC) assay, direct binding / thermal stabilization of PCSK9; conditions: Tm(with compound)−Tm(no compound); 2 μM PCSK9, 300 μM test compound
Method: Differential scanning calorimetry (DSC) was used as a biophysical method to confirm direct binding to PCSK9. A solution containing 2 μM PCSK9 with or without 300 μM test compound in 25 mM HEPES (pH 7.5)/150 mM NaCl/1 mM CaCl2/3.75% DMSO was transferred to the sample cell of the DSC instrument, while buffer alone was placed in the reference cell. Both cells were heated at a constant rate (200° C./hr) from 20-80° C. while recording the excess heat capacity of the sample cell relative to the reference cell. Each thermogram was analyzed to provide the melting temperature (Tm) of the protein.
The higher the temperature shift generally, the higher the affinity.

PCSK9 [2] = target: T1, PCSK9; experiment: Fluorescence polarization competition binding assay (probe: compound of Example 57); conditions: 2 μM PCSK9, 50 nM compound of Example 57 as probe, overnight incubation; read-out: FP IC
Method: Relative compound affinities were determined using a competition binding assay with a fluorescence polarization format. Solution (49 μL) containing 2 μM PCSK9 and 50 nM compound of Example 57 in 20 mM HEPES (pH 7.5)/150 mM NaCl/1 mM CaCl2/0.005% P-20 was dispensed to wells of a 384-well black non-binding microplate before the addition of 1 μL of test compound or DMSO. After mixing, the plate was centrifuged and sealed for overnight incubation in the dark. The anisotropy signal was read using a fluorescence polarization protocol on a Perkin-Elmer Envision plate reader. The % inhibition was determined relative to the window defined by the DMSO control wells and wells containing 50 nM probe in the absence of PCSK9.

T1 sequence (Q8NBP7 153-692): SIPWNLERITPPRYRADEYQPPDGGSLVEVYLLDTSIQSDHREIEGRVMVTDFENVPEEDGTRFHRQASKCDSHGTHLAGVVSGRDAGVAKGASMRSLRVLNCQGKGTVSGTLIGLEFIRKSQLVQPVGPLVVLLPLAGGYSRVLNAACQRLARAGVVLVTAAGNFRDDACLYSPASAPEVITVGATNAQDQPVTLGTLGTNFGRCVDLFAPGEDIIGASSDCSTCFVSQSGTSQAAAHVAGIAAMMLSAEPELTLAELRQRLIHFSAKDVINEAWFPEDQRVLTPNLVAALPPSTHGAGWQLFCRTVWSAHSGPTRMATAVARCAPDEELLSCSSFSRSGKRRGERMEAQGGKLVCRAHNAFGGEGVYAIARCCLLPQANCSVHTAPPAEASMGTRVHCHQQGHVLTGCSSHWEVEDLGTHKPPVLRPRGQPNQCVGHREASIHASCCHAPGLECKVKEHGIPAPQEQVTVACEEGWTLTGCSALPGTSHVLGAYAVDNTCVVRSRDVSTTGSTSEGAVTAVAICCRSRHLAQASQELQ

| SMILES | ΔTm at 300 µM (PCSK9 [1]) | pIC50 (PCSK9 [2]) |
| --- | --- | --- |
| COc1cccc(NC(=O)C[C@@]2(C)NCCc3cc(OC)c(Oc4cccc(F)c4)cc32)c1 [Example 11, (R)-2-(7-(3-fluorophenoxy)-6-methoxy-1-methyl-1,2,3,4-tetrahydroisoquinolin-1-yl)-N-(3-methoxyphenyl)acetamide] | 5.69 °C | 6.12 |
| COc1cc2c(cc1Oc1cccc(F)c1)[C@@](C)(CC(=O)Nc1cccc3[nH]ccc13)NCC2 [Example 12, (R)-2-(7-(3-fluorophenoxy)-6-methoxy-1-methyl-1,2,3,4-tetrahydroisoquinolin-1-yl)-N-(1H-indol-4-yl)acetamide] | -0.225 °C | 6.12 |
| C[C@]1(CC(=O)Nc2nccs2)NCCc2cc(OCC3CCCO3)c(Oc3ccc(-c4ccc(C(=O)O)cc4)c(F)c3)cc21 (stereo partly drawn) [Example 13] | 8.4 °C | 7.00 |
| COC(=O)C1(c2ccc(-c3ccc(Oc4cc5c(cc4OC)CCN[C@]5(C)CC(=O)Nc4nccs4)cn3)cc2)CC1 [Example 15, methyl (R)-1-(4-(5-((6-methoxy-1-methyl-1-(2-oxo-2-(thiazol-2-ylamino)ethyl)-1,2,3,4-tetrahydroisoquinolin-7-yl)oxy)pyridin-2-yl)phenyl)cyclopropane-1-carboxylate] | 3.31 °C | 8.42 |
| COC(=O)CCc1ccc(-c2ccc(Oc3cc4c(cc3OC)CCN[C@]4(C)CC(=O)Nc3nccs3)cn2)cc1 [Example 16, methyl (R)-3-(4-(5-((6-methoxy-1-methyl-1-(2-oxo-2-(thiazol-2-ylamino)ethyl)-1,2,3,4-tetrahydroisoquinolin-7-yl)oxy)pyridin-2-yl)phenyl)propanoate] | 3.57 °C | 8.38 |
| C[C@]1(CC(=O)Nc2nccs2)NCCc2cc(OCc3ccccn3)c(Oc3ccc(-c4ccc(C(=O)O)cc4)c(F)c3)cc21 [Example 18, (R)-2′-fluoro-4′-((1-methyl-1-(2-oxo-2-(thiazol-2-ylamino)ethyl)-6-(pyridin-2-ylmethoxy)-1,2,3,4-tetrahydroisoquinolin-7-yl)oxy)-[1,1′-biphenyl]-4-carboxylic acid] | 7.62 °C | 7.03 |
| C[C@]1(CC(=O)Nc2nccs2)NCCc2cc(OCc3ncccn3)c(Oc3ccc(-c4ccc(C(=O)O)cc4)c(F)c3)cc21 [Example 19, (R)-2′-fluoro-4′-((1-methyl-1-(2-oxo-2-(thiazol-2-ylamino)ethyl)-6-(pyrimidin-2-ylmethoxy)-1,2,3,4-tetrahydroisoquinolin-7-yl)oxy)-[1,1′-biphenyl]-4-carboxylic acid] | 9.05 °C | 6.79 |
| C[C@]1(CC(=O)Nc2nccs2)NCCc2cc(OCC3CCCO3)c(Oc3ccc(-c4c[nH]c5c(C(=O)O)cccc45)c(F)c3)cc21 (stereo partly drawn) [Example 20, 3-(2-fluoro-4-(((1R)-1-methyl-1-(2-oxo-2-(thiazol-2-ylamino)ethyl)-6-((tetrahydrofuran-2-yl)methoxy)-1,2,3,4-tetrahydroisoquinolin-7-yl)oxy)phenyl)-1H-indole-7-carboxylic acid] | 8.56 °C | 6.72 |
| C[C@]1(CC(=O)Nc2nccs2)NCCc2cc(OCC3CCCCO3)c(Oc3ccc(-c4ccc(C(=O)O)cc4)c(F)c3)cc21 (stereo partly drawn) [Example 23, 2′-fluoro-4′-(((1R)-1-methyl-1-(2-oxo-2-(thiazol-2-ylamino)ethyl)-6-((tetrahydro-2H-pyran-2-yl)methoxy)-1,2,3,4-tetrahydroisoquinolin-7-yl)oxy)-[1,1′-biphenyl]-4-carboxylic acid] | 8.71 °C | 6.64 |
| Cc1noc(COc2cc3c(cc2Oc2ccc(-c4ccc(C(=O)O)cc4)c(F)c2)[C@@](C)(CC(=O)Nc2nccs2)NCC3)n1 [Example 24, (R)-2′-fluoro-4′-((1-methyl-6-((3-methyl-1,2,4-oxadiazol-5-yl)methoxy)-1-(2-oxo-2-(thiazol-2-ylamino)ethyl)-1,2,3,4-tetrahydroisoquinolin-7-yl)oxy)-[1,1′-biphenyl]-4-carboxylic acid] | 7.2 °C | 6.58 |

Second part, the compound after the results:

| ΔTm at 300 µM (PCSK9 [1]) | pIC50 (PCSK9 [2]) | SMILES |
| --- | --- | --- |
| 7.06 °C | 6.31 | COc1cc2c(cc1Oc1ccc(C(=O)O)c(F)c1)[C@@](C)(CC(=O)Nc1nccs1)NCC2 [Example 4, (R)-2-fluoro-4-((6-methoxy-1-methyl-1-(2-oxo-2-(thiazol-2-ylamino)ethyl)-1,2,3,4-tetrahydroisoquinolin-7-yl)oxy)benzoic acid] |
| 6.99 °C | 6.25 | COc1cc2c(cc1Oc1cc(F)c(C(=O)O)c(F)c1)[C@@](C)(CC(=O)Nc1nccs1)NCC2 [Example 5, (R)-2,6-difluoro-4-((6-methoxy-1-methyl-1-(2-oxo-2-(thiazol-2-ylamino)ethyl)-1,2,3,4-tetrahydroisoquinolin-7-yl)oxy)benzoic acid] |
| 5.78 °C | 6.19 | COc1cc2c(cc1Oc1ccc3cnccc3c1)[C@@](C)(CC(=O)Nc1nccs1)NCC2 [Example 6, (R)-2-(7-(isoquinolin-6-yloxy)-6-methoxy-1-methyl-1,2,3,4-tetrahydroisoquinolin-1-yl)-N-(thiazol-2-yl)acetamide] |
| 5.59 °C | 6.19 | COc1cc2c(cc1Oc1ccnc(F)c1)[C@@](C)(CC(=O)Nc1nccs1)NCC2 [Example 7, (R)-2-(7-((2-fluoropyridin-4-yl)oxy)-6-methoxy-1-methyl-1,2,3,4-tetrahydroisoquinolin-1-yl)-N-(thiazol-2-yl)acetamide] |
| 5.44 °C | 6.12 | COc1cc2c(cc1Oc1cncc(F)c1)[C@@](C)(CC(=O)Nc1nccs1)NCC2 [Example 8, (R)-2-(7-((5-fluoropyridin-3-yl)oxy)-6-methoxy-1-methyl-1,2,3,4-tetrahydroisoquinolin-1-yl)-N-(thiazol-2-yl)acetamide] |
| 5.92 °C | 6.07 | COc1cc2c(cc1Oc1cccc(F)c1)[C@@](C)(CC(=O)Nc1nccs1)NCC2 [Example 9, (R)-2-(7-(3-fluorophenoxy)-6-methoxy-1-methyl-1,2,3,4-tetrahydroisoquinolin-1-yl)-N-(thiazol-2-yl)acetamide] |
| 5.55 °C | 6.04 | COc1ccc(Oc2cc3c(cc2OC)CCN[C@]3(C)CC(=O)Nc2nccs2)cc1F [Example 10, (R)-2-(7-(3-fluoro-4-methoxyphenoxy)-6-methoxy-1-methyl-1,2,3,4-tetrahydroisoquinolin-1-yl)-N-(thiazol-2-yl)acetamide] |
| 5.89 °C | 9.63 | COc1cc2c(cc1Oc1ccc(-c3c[nH]c(C(=O)O)c3)c(F)c1)[C@@](C)(CC(=O)Nc1nccs1)NCC2 [Example 14, (R)-4-(2-fluoro-4-((6-methoxy-1-methyl-1-(2-oxo-2-(thiazol-2-ylamino)ethyl)-1,2,3,4-tetrahydroisoquinolin-7-yl)oxy)phenyl)-1H-pyrrole-2-carboxylic acid] |
| 2.62 °C | 7.94 | COC(=O)c1cc(-c2ccc(Oc3cc4c(cc3OC)CCN[C@]4(C)CC(=O)Nc3nccs3)cn2)c[nH]1 [Example 17, methyl (R)-4-(5-((6-methoxy-1-methyl-1-(2-oxo-2-(thiazol-2-ylamino)ethyl)-1,2,3,4-tetrahydroisoquinolin-7-yl)oxy)pyridin-2-yl)-1H-pyrrole-2-carboxylate] |
| 6.58 °C | 6.70 | COc1cc2c(cc1Oc1ccc(-c3c[nH]c4c(C(=O)O)cccc34)c(F)c1)[C@@](C)(CC(=O)Nc1nccs1)NCC2 [Example 21, (R)-3-(2-fluoro-4-((6-methoxy-1-methyl-1-(2-oxo-2-(thiazol-2-ylamino)ethyl)-1,2,3,4-tetrahydroisoquinolin-7-yl)oxy)phenyl)-1H-indole-7-carboxylic acid] |
| 7.52 °C | 6.68 | COc1cc2c(cc1Oc1ccc(-c3ccc(C(=O)O)cc3)c(F)c1)[C@@](C)(CC(=O)Nc1nccs1)NCC2 [Example 22, (R)-2′-fluoro-4′-((6-methoxy-1-methyl-1-(2-oxo-2-(thiazol-2-ylamino)ethyl)-1,2,3,4-tetrahydroisoquinolin-7-yl)oxy)-[1,1′-biphenyl]-4-carboxylic acid] |
| 6.6 °C | 6.52 | COc1cc2c(cc1Oc1ccc(-c3ccc(C(=O)O)cc3F)c(F)c1)[C@@](C)(CC(=O)Nc1nccs1)NCC2 [Example 25, (R)-2,2′-difluoro-4′-((6-methoxy-1-methyl-1-(2-oxo-2-(thiazol-2-ylamino)ethyl)-1,2,3,4-tetrahydroisoquinolin-7-yl)oxy)-[1,1′-biphenyl]-4-carboxylic acid] |
| 5.75 °C | 6.41 | COc1cc2c(cc1Oc1ccc(-c3ccc(C(=O)O)cc3)cc1)[C@@](C)(CC(=O)Nc1nccs1)NCC2 [Example 26, (R)-4′-((6-methoxy-1-methyl-1-(2-oxo-2-(thiazol-2-ylamino)ethyl)-1,2,3,4-tetrahydroisoquinolin-7-yl)oxy)-[1,1′-biphenyl]-4-carboxylic acid] |
| 7.11 °C | 6.41 | COc1cc2c(cc1Oc1ccc(-c3ccc(C(=O)O)c(F)c3)c(F)c1)[C@@](C)(CC(=O)Nc1nccs1)NCC2 [Example 27, (R)-2′,3-difluoro-4′-((6-methoxy-1-methyl-1-(2-oxo-2-(thiazol-2-ylamino)ethyl)-1,2,3,4-tetrahydroisoquinolin-7-yl)oxy)-[1,1′-biphenyl]-4-carboxylic acid] |
